Experimental findings from patent US6284768A, “Src family SH2 domain inhibitors” (Boehringer Ingelheim Pharmaceuticals, Inc., priority 1999, dated 2001) are described below.

In the assay the target is T1, p56lck GST-SH2 (lck SH2 domain) (Homo sapiens, UniProt P06239).
T1 construct: GST (N)
The experiment in a line: Receptor-ligand equilibrium binding constants by surface plasmon resonance (biosensor), lck SH2 domain. To be noted: Table 1, compounds of formula (II). As for the experimental part:
The general methods for the determination of Receptor-Ligand Kinetic and Equilibrium Binding Constants using Surface Plasmon Resonance as applied to the lck SH2 Domain have been described in: M. M. Morelock, R. H. Ingraham, R. Betageri.
General Biosensor Methods.
The mobile phase buffer, 10 mM HEPES, pH 7.4, 150 mM NaCl, and 0.05% P-20, was maintained at a flow rate of 5 μL/min in all experiments. All buffers and protein solutions were filtered through a 0.2 um filter and degassed immediately before use.
Strepavidin was diluted to 0.25 mg/ml in 20 mM NaOAc buffer, pH 4.5 and immobilized by free amine coupling to approximately 3000 RU for all 4 flow cells from a single sensor chip .
Surface Kd Determinations.
The surface was regenerated by 4μL of 20 mM HCl followed by 4 μL of 150 mM Tris base. The values used in the analysis were the equilibrium plateau values from which the sample refractive index has been subtracted. For the data analyzed for linear function the equilibrium plateau values without the sample refractive index subtracted were used. Free solution Kd determinations. In a 96 well microtiter plate 20 nM SH2 domain suspended in running buffer containing 0.2 mg/ml BSA and 1 mM DT'T was distributed in 100 μL per well. The highest concentration of compound tested was added to the last well and titrated with 2 fold dilutions for a final of 10 concentrations to be run. 25 μL of the mixture was injected over a strepavidin-biotin-ε-aminohexanoic acid-EGQpYEEIPIA surface and regenerated with 4 μL of 20 mM HCl. […], of 150 mM Tris base was injected after every 11 samples. Typically 8 assays were run in an overnight programmed run.
(In SPR one partner is held on a chip, and binding of the other changes the refractive index at the surface.)

T1 sequence (P06239 127-224 limits assumed): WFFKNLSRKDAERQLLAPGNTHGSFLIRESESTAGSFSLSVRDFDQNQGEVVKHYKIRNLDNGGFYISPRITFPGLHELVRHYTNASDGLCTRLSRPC

Regarding `COc1ccc(Cn2ccc(C)c(NC(=O)[C@H](Cc3ccc(NC(=O)C(=O)O)cc3)NC(=O)Cc3ccccc3Br)c2=O)cc1` [Compound 38], the affinity, expressed as Kd, was 3.2 µM. This counts as single-digit micromolar.

The molecule `COc1ccc(Cn2ccc(C)c(NC(=O)[C@H](Cc3ccc(NC(=O)C(=O)O)cc3)NC(=O)Cc3ccc(-n4c(C)ccc4C)cc3)c2=O)cc1` [Compound 39] registered a Kd of 2.3 µM.

Regarding `CCN(CC)c1ccc(CC(=O)N[C@@H](Cc2ccc(NC(=O)C(=O)O)cc2)C(=O)Nc2c(C)ccn(Cc3ccc(OC)cc3)c2=O)cc1` [Compound 40], binding was put at a Kd of 1.9 µM.

`COc1ccc(Cn2ccc(C)c(NC(=O)[C@H](Cc3ccc(CC(=O)O)cc3)NC(=O)Cc3cc4ccccc4[nH]3)c2=O)cc1` [Compound 41] came in with a Kd of 4.7 µM.

In turn, `COc1ccc(Cn2ccc(C)c(NC(=O)[C@H](Cc3ccc(CS(=O)(=O)O)cc3)NC(=O)Cc3cccc4ccccc34)c2=O)cc1` [Compound 42, 3-[2'-(S)-(1'"-Naphthylacetyl)amino-3'-(4"-sulfonylmethyl)benzene]propanoylamino-1-(4-methoxybenzyl)-4-methyl-2-pyridone] registered a Kd of 1.5 µM.

In turn, `COc1ccc(Cn2ccc(C)c(NC(=O)[C@H](Cc3ccc(NC(=O)C(=O)O)cc3)NC(=O)Cc3ccc(C(C)C)cc3)c2=O)cc1` [Compound 43] came in with a Kd of 1.9 µM. The Kd values of the last two molecules are within 1.5-fold of each other.

As to `COc1ccc(Cn2ccc(C)c(NC(=O)[C@H](Cc3ccc(C(C)(C)C(=O)O)cc3)NC(=O)[C@H](C)c3cccc4ccccc34)c2=O)cc1` [Compound 44], the Kd was 1.5 µM. The Kd values of the last two molecules are within 1.5-fold of each other.

The molecule `COc1ccc(Cn2ccc(C)c(NC(=O)[C@H](Cc3ccc(C(C)(C)C(=O)O)cc3)NC(=O)[C@@H](C)c3cccc4ccccc34)c2=O)cc1` [Compound 45] showed a Kd of 3.4 µM.

For the molecule `COc1ccc(Cn2ccc(C)c(NC(=O)[C@H](Cc3ccc(NC(=O)C(=O)O)cc3)NC(=O)Cc3ccc(NC(C)C)cc3)c2=O)cc1` [Compound 47], the Kd was found to be 2.1 µM.

`COc1ccc(Cn2ccc(C)c(NC(=O)[C@H](Cc3ccc(NC(=O)C(=O)O)cc3)NC(=O)Cc3ccc(NCC(C)(C)C)cc3)c2=O)cc1` [Compound 48] displayed a Kd of 0.5 µM.

As for `COc1ccc(Cn2ccc(C)c(NC(=O)[C@H](Cc3ccc(NC(=O)C(=O)O)cc3)NC(=O)Cc3cccc(N(C)C)c3)c2=O)cc1` [Compound 49], the Kd came out at 2.1 µM.

With `COc1ccc(Cn2ccc(C)c(NC(=O)[C@H](Cc3ccc(C(CO)C(=O)O)cc3)NC(=O)OCc3ccccc3)c2=O)cc1` (stereo partly drawn) [Compound 50, 3-[2-(S)-Benzyloxycarbonylamino-3-[4'-(1"-(R,S)-carboxy-2"-hydroxy)ethyl]benzene]propanoylamino-1-(4-methoxybentyl)-4-methyl-2-pyridone], the affinity, expressed as Kd, was 39 µM.

As for `Cc1ccn(Cc2ccc(OC(C)C)cc2)c(=O)c1NC(=O)[C@H](Cc1ccc(CC(=O)O)cc1)NC(=O)Cc1cccc2ccccc12` [Compound 51], the Kd was greater than 69 µM.

In the case of `COc1ccc(Cn2ccc(C)c(NC(=O)[C@H](Cc3ccc(NC(=O)C(=O)O)cc3)NC(=O)Cc3cccc4ccccc34)c2=O)cc1` [Compound 52], the Kd is 0.24 µM. This counts as sub-micromolar.

`Cc1ccn(Cc2ccc(OC(F)(F)F)cc2)c(=O)c1NC(=O)[C@H](Cc1ccc(CC(=O)O)cc1)NC(=O)Cc1cccc2ccccc12` [Compound 53, 3-[2'-(S)-(1'"-Naphthyl)acetlyamino-3'-(4"-carboxymethyl)benzene]propanoylamino-1-(4-trifluoromethoxybenzyl)-4-methyl-2-pyridone] yielded a Kd of 12.7 µM.

Turning to `Cc1ccn(Cc2ccc(C(C)C)cc2)c(=O)c1NC(=O)[C@H](Cc1ccc(CC(=O)O)cc1)NC(=O)Cc1cccc2ccccc12` [Compound 54], the equilibrium dissociation constant (Kd) is greater than 500 µM.

`Cc1ccn(Cc2ccc(Cl)cc2)c(=O)c1NC(=O)[C@H](Cc1ccc(CC(=O)O)cc1)NC(=O)Cc1cccc2ccccc12` [Compound 55] had a Kd of 15 µM. This lies in the double-digit micromolar range.

For the molecule `Cc1ccc(Cn2ccc(C)c(NC(=O)[C@H](Cc3ccc(CC(=O)O)cc3)NC(=O)Cc3cccc4ccccc34)c2=O)cc1` [Compound 56], the Kd came to 7.1 µM.

As for `COc1ccc(Cn2ccc(C)c(NC(=O)[C@H](Cc3ccc(CC(=O)O)cc3)NC(=O)OCc3ccccc3)c2=O)cc1` [Compound 57], the Kd turned out to be 15 µM. Compared with the last molecule, the Kd is about 2.1-fold higher.

On to `COc1ccc(Cn2ccc(C)c(NC(=O)[C@H](Cc3ccc(CC(=O)O)cc3)NC(=O)Cc3ccccc3)c2=O)cc1` [Compound 58], for which the affinity, expressed as Kd, was 5.6 µM.

As to `COc1ccc(Cn2ccc(C)c(NC(=O)[C@H](Cc3ccc(CC(=O)O)cc3)NC(=O)Cc3ccc4ccccc4c3)c2=O)cc1` [Compound 59, 3-[2'-(S)-(2'"-Naphthylacetyl)amino-3'-(4"-carboxymethyl)benzene]propanoylamino-1-(4-methoxybenzyl)-4-methyl-2-pyridone], binding was put at a Kd of 1.5 µM.

`COc1ccc(Cn2ccc(C)c(NC(=O)[C@H](Cc3ccc(CC(=O)O)cc3)NC(=O)Cc3cc4ccccc4cc3C)c2=O)cc1` [Compound 60] registered a Kd of 1.9 µM.

`COc1ccc(Cn2ccc(C)c(NC(=O)[C@H](Cc3ccc(CC(=O)O)cc3)NC(=O)Cc3cccc(Oc4ccccc4)c3)c2=O)cc1` [Compound 61] displayed a Kd of 3.3 µM.

For `COc1ccc(Cn2ccc(C)c(NC(=O)[C@H](Cc3ccc(CC(=O)O)cc3)NC(=O)[C@@H](C)c3ccc4cc(OC)ccc4c3)c2=O)cc1` [Compound 62], the affinity, expressed as Kd, was 8.8 µM.

Regarding `COc1ccc(Cn2ccc(C)c(NC(=O)[C@H](Cc3ccc(CC(=O)O)cc3)NC(=O)C(C)(C)C)c2=O)cc1` [Compound 63], the Kd is 12 µM.

The molecule `COc1ccc(Cn2ccc(C)c(NC(=O)[C@H](Cc3ccc(CC(=O)O)cc3)NC(=O)Cc3cc(=O)oc4cc(N(C)C)ccc34)c2=O)cc1` [Compound 64] came in with a Kd of 17 µM.

`COc1ccc(Cn2ccc(C)c(NC(=O)[C@H](Cc3ccc(C(F)(F)P(=O)(O)O)cc3)NC(C)=O)c2=O)cc1` [Compound 65]: the Kd was 1.3 µM.

For `COc1ccc(Cn2ccc(C)c(NC(=O)[C@H](Cc3ccc(C(F)(F)P(=O)(O)O)cc3)NC(=O)Cc3cccc4ccccc34)c2=O)cc1` [Compound 66], the Kd was found to be 0.43 µM.

`Cc1ccn(CC2CCCCC2)c(=O)c1NC(=O)[C@H](Cc1ccc(CC(=O)O)cc1)NC(=O)C(C)(C)C` [Compound 67] yielded a Kd of 64 µM.

Molecule `Cc1ccn(CC2CCCCC2)c(=O)c1NC(=O)[C@H](Cc1ccc(CC(=O)O)cc1)NC(=O)Cc1cccc2ccccc12` [Compound 68] yielded a Kd of 12 µM.

`CCCCCn1ccc(C)c(NC(=O)[C@H](Cc2ccc(CC(=O)O)cc2)NC(=O)C(C)(C)C)c1=O` [Compound 69] gave a Kd of 89 µM. This Kd is about 7.4-fold higher than that of the molecule before.

As for `CCCCCn1ccc(C)c(NC(=O)[C@H](Cc2ccc(CC(=O)O)cc2)NC(=O)Cc2cccc3ccccc23)c1=O` [Compound 70], the Kd stood at 24 µM.

As to `COc1ccc(Cn2ccc(C)c(NC(=O)[C@H](Cc3ccc(CC(=O)O)cc3)NC(=O)Cc3ccc(Oc4ccccc4)cc3)c2=O)cc1` [Compound 71], the Kd is 14 µM.

Regarding `COc1ccc(Cn2ccc(C)c(NC(=O)[C@H](Cc3ccc(CC(=O)O)cc3)NC(=O)COc3cccc4ccccc34)c2=O)cc1` [Compound 72], binding was characterised by a dissociation constant (Kd) of 2.5 µM. Compared with the last molecule, the Kd is about 5.6-fold lower.

In the case of `COc1ccc(Cn2ccc(C)c(NC(=O)[C@H](Cc3ccc(CC(=O)O)cc3)NC(=O)Cc3ccccc3Oc3ccccc3)c2=O)cc1` [Compound 73], the Kd is greater than 250 µM.

`CCC(=O)N[C@@H](Cc1ccc(CC(=O)O)cc1)C(=O)Nc1c(C)ccn(Cc2ccc(OC)cc2)c1=O` [Compound 74] displayed a Kd of 14 µM.

Molecule `COc1ccc(Cn2ccc(C)c(NC(=O)[C@H](Cc3ccc(CC(=O)O)cc3)NC(=O)C(C)C)c2=O)cc1` [Compound 75] yielded a Kd of 6.7 µM.

As to `COc1ccc(Cn2ccc(C)c(NC(=O)[C@H](Cc3ccc(CC(=O)O)cc3)NC(=O)C(C)(C)c3ccccc3)c2=O)cc1` [Compound 76], the Kd is 8.6 µM.

As to `COc1ccc(Cn2ccc(C)c(NC(=O)[C@H](Cc3ccc(CC(=O)O)cc3)NC(=O)C3(c4ccccc4)CC3)c2=O)cc1` [Compound 77], the Kd is 20 µM.

In the case of `COc1ccc(Cn2ccc(C)c(NC(=O)[C@H](Cc3ccc(CC(=O)O)cc3)NC(=O)C3(c4ccccc4)CCCC3)c2=O)cc1` [Compound 78], the affinity, expressed as Kd, was 13 µM.

In the case of `COc1ccc(Cn2ccc(C)c(NC(=O)[C@H](Cc3ccc(CC(=O)O)cc3)NC(=O)C3(c4ccccc4)CCCCC3)c2=O)cc1` [Compound 79], binding was characterised by a dissociation constant (Kd) of 11 µM.

In turn, `COc1ccc(Cn2ccc(C)c(NC(=O)[C@H](Cc3ccc(CC(=O)O)cc3)NC(=O)C3(c4ccccc4)CCOCC3)c2=O)cc1` [Compound 80] gave a Kd of 20 µM.

`COc1ccc(C(C)n2ccc(C)c(NC(=O)[C@H](Cc3ccc(CC(=O)O)cc3)NC(C)=O)c2=O)cc1` (stereo partly shown) [Compound 81]: the Kd is 23 µM.

For the molecule `COc1ccc(C(C)n2ccc(C)c(NC(=O)[C@H](Cc3ccc(CC(=O)O)cc3)NC(=O)C(C)(C)C)c2=O)cc1` (stereo partly shown) [Compound 82], binding was put at a Kd of 32 µM. This Kd and that of the molecule before are within 1.5-fold of each other.

Molecule `COc1ccc(C(C)n2ccc(C)c(NC(=O)[C@H](Cc3ccc(CC(=O)O)cc3)NC(=O)Cc3cccc4ccccc34)c2=O)cc1` (stereo partly shown) [Compound 83] displayed a Kd of 2.1 µM. This Kd is about 15-fold lower than that of the molecule before.

In turn, `COc1ccc(Cn2ccc(C)c(NC(=O)[C@H](Cc3ccc(CC(=O)O)cc3)NC(=O)COc3cccc4cnccc34)c2=O)cc1` [Compound 84] yielded a Kd of 400 µM.

By Kd is commonly meant the free concentration of one partner at which half of the binding sites on the other are occupied at equilibrium, for simple one-to-one binding. The low end stands for higher affinity, the high end for lower affinity.
